Data reported in US20250145589A1, “PYRIDINE DERIVATIVE AND USE THEREOF” (SICHUAN HUIYU PHARMACEUTICAL CO., LTD., priority 2021, published 2025).
Where two headings read alike, the source gives them in different places.

Assays:
[1] = test system: MIA PaCa-2 cells (KRAS G12C mutant); test: MIA PaCa-2 cell anti-proliferation (CellTiter-Glo); format: cell-based; conditions: MIA Paca-2 cells, 3 days, Table 7, read-out: MIA PaCa-2 (IC50)
Summary of the method: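 Viable-cell luminescence (CellTiter-Glo, ≥30 min at 25 °C) measured after a 3-day, 37 °C exposure to compounds at 9 points, 4-fold spaced, in DMEM containing 10% FBS plus 2.5% horse serum. IC50 derived versus no-inhibitor wells.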

KRAS^G12C-SOS1 = KRAS^G12C-SOS1 (Homo sapiens (Human), UniProt P01116, G12C); test: HTRF KRAS G12C/SOS1 binding assay; conditions: Table 5
Chain of KRAS^G12C-SOS1 (P01116-2 other isoform, or with tags, fused parts or gaps G12C): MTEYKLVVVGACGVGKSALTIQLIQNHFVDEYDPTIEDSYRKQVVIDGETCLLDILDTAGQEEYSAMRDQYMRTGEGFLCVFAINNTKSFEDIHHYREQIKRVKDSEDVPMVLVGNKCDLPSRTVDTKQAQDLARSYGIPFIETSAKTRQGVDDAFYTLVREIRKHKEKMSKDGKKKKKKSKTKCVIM
Summary of the method: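 Compound was serially diluted five-fold over eight points, with a 2 mM DMSO stock. After anti-tag-Tb3+ and anti-tag-XL665 were added, plates were incubated 3 h at 4 °C and read by HTRF (ex 337 nm, em 620/665 nm ratio). IC50 values come from four-parameter variable-slope fits.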

[2] = test system: NCI-H358-AMGR drug-resistant cell line; test: NCI-H358-AMGR drug-resistant cell proliferation inhibitory activity test; format: cell-based; conditions: NCI-H358-AMGR drug-resistant cells, 3 days incubation, CellTiter-Glo
Summary of the method: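 Luminescent CellTiter-Glo read-out after 3-day, 37° C compound exposure (8 points, 5-fold series) of AMG510-resistant NCI-H358 cells plated at 4×10^3 per well.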

Row | Compound | IC50 ([1]; Homo sapiens, 72 h) [nM] | IC50 (KRAS^G12C-SOS1) [nM] | IC50 ([2]; 72 h) [nM] | IC50 [1] [nM] | IC50 [2] [nM]
1 | COc1ncc(-c2ccc3ncnc(C4CCN(C(=O)/C=C/C(C)=O)CC4)c3n2)cc1NS(=O)(=O)c1ccccc1F [Example 232, (E)-2-fluoro-N-(2-methoxy-5-(4-(1-(4-oxopent-2-enoyl)piperidin-4-yl)pyrido[3,2-d]pyrimidin-6-yl)pyridin-3-yl)benzenesulfonamide] | 17.7 | 269 | 44 | – | –
2 | COc1ncc(-c2ccc3ncnc(C4=CCN(C(=O)/C=C/C(C)=O)CC4)c3c2)cc1NS(=O)(=O)c1c(F)cccc1F [Example 201, (E)-2,6-difluoro-N-(2-methoxy-5-(4-(1-(4-oxopent-2-enoyl)-1,2,3,6-tetrahydropyridin-4-yl)quinazolin-6-yl)pyridin-3-yl)benzenesulfonamide] | 31.9 | 140 | 5.3 | – | –
3 | COc1ncc(-c2ccc3ncnc(N4C[C@@H](C)N(C(=O)/C=C/C(C)=O)C[C@@H]4C)c3c2)cc1NS(=O)(=O)c1c(F)cccc1F [Example 51, N-(5-(4-((2S,5R)-2,5-dimethyl-4-((E)-4-oxopent-2-enoyl)piperazin-1-yl)quinazolin-6-yl)-2-methoxypyridin-3-yl)-2,6-difluorobenzene-sulfonamide] | 50.7 | 942 | 61 | – | –
4 | COc1ncc(-c2ccc3ncnc(C4CCN(C(=O)/C=C/C(C)=O)CC4)c3c2)cc1NS(=O)(=O)c1sc(C)nc1C [Example 203, (E)-N-(2-methoxy-5-(4-(1-(4-oxopent-2-enoyl)piperidin-4-yl)quinazolin-6-yl)pyridin-3-yl)-2,4-dimethylthiazole-5-sulfonamide] | 51.4 | 419 | 5.4 | – | –
5 | COc1ncc(-c2ccc3ncnc(N4CCN(C(=O)/C=C/C(C)=O)C[C@@H]4C)c3c2)cc1NS(=O)(=O)c1c(F)cccc1F [Example 46, (S,E)-2,6-difluoro-N-(2-methoxy-5-(4-(2-methyl-4-(4-oxopent-2-enoyl)piperazin-1-yl)quinazolin-6-yl)pyridin-3-yl) benzenesulfonamide] | 91.9 | 166 | 27.8 | – | –
6 | COc1ncc(-c2ccc3ncnc(N4CCN(C(=O)/C=C/C(C)=O)CC4)c3c2)cc1NS(=O)(=O)c1ccc(C)cc1F [Example 111] | – | 364 | – | 44.4 | 118
7 | COc1ncc(-c2ccc3ncnc(N4CCC5(CN(C(=O)/C=C/C(C)=O)C5)C4)c3c2)cc1NS(=O)(=O)c1c(F)cccc1F [Example 42] | – | 109 | – | 284 | 132
8 | COc1ncc(-c2ccc3ncnc(N4CCN(C(=O)/C=C/C(C)=O)CC4)c3c2)cc1NS(=O)(=O)c1c(F)cc(F)cc1F [Example 99, (E)-2,4,6-trifluoro-N-(2-methoxy-5-(4-(4-(4-oxopent-2-enoyl)piperazin-1-yl)quinazolin-6-yl)pyridin-3-yl)benzenesulfonamide] | 16.7 | 188 | 65.2 | – | –
9 | COc1ncc(-c2ccc3ncnc(C4CCN(C(=O)/C=C/C(C)=O)CC4)c3c2)cc1NS(=O)(=O)c1ccccc1F [Example 204, (E)-2-fluoro-N-(2-methoxy-5-(4-(1-(4-oxopent-2-enoyl)piperidin-4-yl)quinazolin-6-yl)pyridin-3-yl)benzenesulfonamide] | 115 | 306 | 47.1 | – | –
10 | COc1ncc(-c2ccc3ncnc(N4C[C@@H](C)N(C(=O)/C=C/C(C)=O)C[C@@H]4C)c3c2)cc1NS(=O)(=O)c1ccc(F)cc1F [Example 15, N-(5-(4-((2S,5R)-2,5-dimethyl-4-((E)-4-oxopent-2-enoyl)piperazin-1-yl)quinazolin-6-yl)-2-methoxypyridin-3-yl)-2,4-difluorobenzenesulfonamide] | 71.1 | 558 | 62.1 | – | –
11 | COc1ncc(-c2ccc3ncnc(N4CCN(C(=O)/C=C/C(C)=O)CC4)c3c2)cc1NS(=O)(=O)c1ccc(F)cc1 [Example 92, (E)-4-fluoro-N-(2-methoxy-5-(4-(4-(4-oxopent-2-enoyl)piperazin-1-yl)quinazolin-6-yl)pyridin-3-yl)benzenesulfonamide] | 31 | 369 | 111 | – | –
